From PubChem BioAssay AID179 (DTP/NCI, 2004)
Activity calls are given as the source filed them.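 How the source made its calls: active means compounds giving half or more protection of infected cells from virus-caused growth loss, again on retest; inactive means the rest.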

System: CEM cells HIV-1 protection, formazan growth assay
Assay: NCI AIDS Antiviral Assay
Settings: for IC50: measured here: growth of uninfected CEM cells
Method in brief: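 Steps: treat uninfected and HIV-1-infected human CEM cells at five drug levels; quantify growth by soluble formazan; retest any compound reaching 50% protection; classify actives from the retest.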

O=C(/C=C/c1ccc([N+](=O)[O-])cc1)c1ccccc1
EC50: > 4.07 µM | IC50: > 4.07 µM

CCO[C@@H]1OC(=O)[C@H]2C(c3ccc(Cl)cc3)=NO[C@@H]12
EC50: > 35.5 µM | IC50: > 35.5 µM

CCOC(=O)NC(Nc1cccc(F)c1)(C(F)(F)F)C(F)(F)F
EC50: > 200 µM | IC50: > 200 µM

O=C1CC23CCCC2(C1)CC(=O)C3 (stereo unspecified)
EC50: > 126 µM | IC50: > 126 µM

Cc1ncc([N+](=O)[O-])n1CC(O)Cn1ccnc1[N+](=O)[O-] (stereo unspecified)
EC50: > 200 µM | IC50: > 200 µM

N/C(=N/N=C/c1ccc(Cl)c([N+](=O)[O-])c1)NO
outcome: inactive

O=c1n(-c2ccccc2)c(=O)n2c(-c3ccccc3)c(-c3ccccc3)n12
EC50: > 200 µM | IC50: 30.9 µM

O=C(O)c1c2c(cc3c(=O)cc(-c4ccccc4)oc13)CCCC2
outcome: inactive

Cc1ccc(NC(=O)c2[nH]c(=S)nc(N)c2-c2ccccc2C)cc1C
EC50: > 692 µM | IC50: > 692 µM

CC(=O)Nc1cnc2c(nc3cc(C)ccn32)c1C
EC50: > 74.1 µM | IC50: > 74.1 µM

C/C(=N\NC(=S)N(C)CCN(C)C(=S)N/N=C(\C)c1ccccn1)c1ccccn1
EC50: > 200 µM | IC50: 2.45 µM

CN(/N=C/c1ccccc1O)c1ccc2ccccc2n1
EC50: > 200 µM | IC50: 126 µM

C(=Nc1ccccc1C1SCCCS1)c1ccccc1
EC50: > 200 µM | IC50: > 200 µM

CN1C(=O)C(O)C[C@@H]1c1ccccc1 (stereo partly specified)
outcome: inactive

COC(=O)[C@@H](Cc1ccccc1)NNC(=O)OC(C)(C)C
EC50: > 851 µM | IC50: 437 µM

CCOC(=O)C1OC12CCC(C(C)(C)C)CC2 (stereo unspecified)
EC50: > 200 µM | IC50: 191 µM

CCOC(=O)CSC1NC(C(=O)OC)CC1OC (stereo unspecified)
EC50: > 200 µM | IC50: > 200 µM

CCN1C(=O)C(N=[N+]=[N-])(c2ccccc2)C(=O)c2ccccc21 (stereo unspecified)
EC50: > 200 µM | IC50: > 200 µM

COC(=O)[C@@H](NC(=O)N(CCC#N)CCCN(C(=O)N[C@H](Cc1ccccc1)C(=O)OC)c1ccccc1)C(C)C
EC50: > 200 µM | IC50: 87.1 µM

Cc1nn(-c2ccccc2)c2c1CC(=O)Nc1ccccc1-2
EC50: > 2 µM | IC50: 0.112 µM

CC1(CO)COc2ccccc2C1=O (stereo unspecified)
EC50: > 200 µM | IC50: > 200 µM

COC(CC[P+](c1ccccc1)(c1ccccc1)c1ccccc1)(C(=O)c1ccccc1)c1ccccc1 (stereo unspecified)
EC50: > 20 µM | IC50: 0.447 µM

OCCO[P+]1(OCCO)n2c3ccc2C(c2ccccc2)=C2C=CC(=N2)C(c2ccccc2)=c2ccc(n21)=C(c1ccccc1)C1=NC(=C3c2ccccc2)C=C1
EC50: > 0.2 µM | IC50: 0.0813 µM

CSC(=S)Nc1cc(C)cc(C)n1
EC50: > 200 µM | IC50: > 200 µM

O=C(CC1(O)C(=O)Nc2ccc(Br)cc21)c1ccc(Cl)cc1Cl (stereo unspecified)
EC50: > 162 µM | IC50: 95.5 µM

CC(Cl)(/C=C/Cl)C(Cl)/C=C/C(Cl)(CCl)CBr (stereo unspecified)
outcome: inactive

C1CSCCSCCSCCSCCSCCS1
EC50: > 14.5 µM | IC50: > 14.5 µM

O=[N+]([O-])c1ccc(N/N=C/C(c2ccccc2)c2ccsc2)c([N+](=O)[O-])c1 (stereo unspecified)
EC50: > 200 µM | IC50: 19.5 µM

O=C(/C=C/c1ccc(/C=C/C(=O)c2ccc(O)cc2)cc1)c1ccc(O)cc1
EC50: > 200 µM | IC50: 26.9 µM

C=CCN(N=O)C(=O)NCCCCC(NC(C)=O)C(=O)NCc1ccccc1 (stereo unspecified)
outcome: inactive

COc1ccc2c(c1)CCC1=CC3(CCC12C)SCCS3 (stereo unspecified)
EC50: > 58.9 µM | IC50: 10.2 µM

Cc1cc(Cl)ccc1NC(=O)CCCC(=O)C1CCCC1=O (stereo unspecified)
outcome: inactive

CCOC(=O)C(C(=N)C(=N)C(C(=O)O)C(=O)OCC)C(=O)O (stereo unspecified)
outcome: inactive

CCCCNC(=O)CNC(=O)c1ccccc1SC(=O)CCCC[n+]1ccccc1
EC50: > 200 µM | IC50: 9.33 µM

CCCCCCCCCCCCCCCc1cc(=O)c2c(O)cc(O)cc2o1
outcome: inactive

O=C1CSC(Cc2nc3ccccc3[nH]2)=N1
EC50: > 30.9 µM | IC50: > 30.9 µM

COC1(c2ccccc2)OC(=O)c2ccccc21 (stereo unspecified)
EC50: > 200 µM | IC50: 83.2 µM

CCCC/C=C(/CCCNC=O)[Si](C)(C)C
EC50: > 537 µM | IC50: > 537 µM

Cc1c(C)c(C)c(-n2c(=O)n(C)c(=O)n2C(C)(C)C)c(C)c1C
EC50: > 200 µM | IC50: 3.31 µM

COc1ccc2c(c1OC)OC1CNc3cc(C)c(C)cc3N=C1C2 (stereo unspecified)
EC50: 1.35 µM | IC50: 4.57 µM

O=C(c1ccccc1Cl)c1c(O)c2ccccc2oc1=O
EC50: > 200 µM | IC50: > 200 µM

Cc1oc2ccccc2c(=O)c1C
outcome: inactive

CCC(O)(Cc1ccc(OC)cc1)c1ccc(OC)cc1 (stereo unspecified)
EC50: > 200 µM | IC50: 123 µM

CC(=O)OCC1(C)C(OC(C)=O)CCC2(C)C(CC(OC(C)=O)C3=CCOC3=O)C(O)(CO)CCC12 (stereo unspecified)
outcome: inactive

N#C/C(=C\c1ccccc1F)C(=O)c1ccccc1
EC50: > 75.9 µM | IC50: > 75.9 µM

O=C(CSc1nc2[nH]ncc2c(=O)[nH]1)c1ccc(Cl)cc1
EC50: > 200 µM | IC50: > 200 µM

COc1ccc(C2(OC)Oc3ccccc3-c3nc4ccccc4nc32)cc1 (stereo unspecified)
EC50: > 69.2 µM | IC50: > 69.2 µM

COC(=O)c1ccc2c(c1)CC1(C2)Cc2cc3c(c(C(=O)OC)c2C1)CCCC3 (stereo unspecified)
EC50: > 200 µM | IC50: > 200 µM
